The compounds below were run against T1, hMrgpMRGPRX2 (Homo sapiens, UniProt Q96LB1) (assay: FLIPR intracellular calcium mobilization, antagonist activity in recombinant hMrgpMRGPRX2 expressing cells). Settings: read-out: Human MrgprX2 Antagonist pIC50 (converted).
T1 construct: expressed in transfected cells
T1 sequence (Q96LB1 1-330): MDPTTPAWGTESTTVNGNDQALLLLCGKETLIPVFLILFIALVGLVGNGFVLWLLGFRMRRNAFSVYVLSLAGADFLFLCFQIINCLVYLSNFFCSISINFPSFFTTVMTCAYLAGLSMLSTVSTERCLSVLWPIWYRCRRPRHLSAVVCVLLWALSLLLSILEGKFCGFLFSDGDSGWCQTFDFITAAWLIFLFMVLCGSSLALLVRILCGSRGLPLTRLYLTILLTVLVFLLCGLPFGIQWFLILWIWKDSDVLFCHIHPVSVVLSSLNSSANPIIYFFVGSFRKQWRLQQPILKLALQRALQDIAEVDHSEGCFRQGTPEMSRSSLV
Assay type: cell-based
Description: Potent and selective hMrgpMRGPRX2 compounds have been generated from compounds identified during a high throughput screening (HTS) campaign and followed up with cycles of structure activity based medicinal chemistry efforts. These compounds were characterized in recombinant hMrgpMRGPRX2 expressing cells for their antagonist activity and the potency was confirmed in the human mast cell line LAD-2, where the target is endogenously expressed. The assays used to determine potencies are functional read-out looking at intracellular calcium mobilization using the FLIPR™ technology. In these FLIPR assays, we test the identified compounds using recombinant cellular systems expressing mouse MrgprB2, mouse MrgprA1, gerbil MrgpMRGPRX2 orthologue, Chinese hamster MrgpMRGPRX2 orthologue and cynomolgus monkey MrgpMRGPRX2 orthologue, respectively for orthologue activity.

SMILES	IC50
CC1(C)C(C(=O)Nc2ccc(OCc3cncc(F)c3)cn2)C1(C)C [Compound E086]	204 nM
CC1(C)C(C(=O)Nc2ccc(-c3ccn[nH]3)cn2)C1(C)C [Compound E176]	120 nM
CC1(C)CC1C(=O)Nc1cc(Cl)ccn1 (stereo not shown) [Compound E208]	3160 nM
CC1(C)C(C(=O)Nc2ccc(Oc3ccc(F)nc3)cn2)C1(C)C [Compound E056]	5.01 nM
CC1(C)C(C(=O)Nc2cnc(Oc3cc(F)cc(C#N)c3)cn2)C1(C)C [Compound E223]	31.6 nM
CC1(C)C(C(=O)Nc2cc(Oc3cncc(F)c3)ccn2)C1(C)C [Compound E147, N-[4-[(5-fluoro-3-pyridyl)oxy]-2-pyridyl]-2,2,3,3-tetramethyl-cyclopropanecarboxamide]	7.94 nM
CC1(C(=O)Nc2ccc(Oc3cccc(Cl)c3)cn2)CCOCC1 [Compound E015]	25.1 nM
CC1(C)C(C(=O)Nc2ccc(-c3cnco3)cn2)C1(C)C [Compound E273, 2,2,3,3-tetramethyl-N-(5-oxazol-5-yl-2-pyridyl)cyclopropanecarboxamide]	661 nM
CC1(C)C(C(=O)Nc2ccc(-n3nccn3)cn2)C1(C)C [Compound E089]	15.1 nM
CC1(C)C(C(=O)Nc2ccc(OC3CCOCC3)cn2)C1(C)C [Compound E085]	1000 nM
CC1(C)C(C(=O)Nc2ccc(Oc3ccc(C#N)cc3)cn2)C1(C)C [Compound E058]	31.6 nM
CC1(C)C(C(=O)Nc2ccc(N3CCC(F)C3)cn2)C1(C)C (stereo not shown) [Compound E099]	25.1 nM

Other lines, results leading:

IC50	SMILES
10.7 nM	CCN(C[C@@H](O)C(F)(F)F)C(=O)Nc1ccc(Oc2ccc(F)c(F)c2)cn1 [Compound E102, 3-[5-(3,4-difluorophenoxy)-2-pyridyl]-1-ethyl-1-[(2R)-3,3,3-trifluoro-2-hydroxy-propyl]urea]
2.04 nM	CCN(C[C@@H](O)C(F)(F)F)C(=O)Nc1ccc(Oc2cc(F)cc(F)c2)cn1 [Compound E117]
468 nM	CC1(C)CCN1C(=O)Nc1ccc(Oc2ccc(F)c(F)c2)cn1 [Compound E125]
14.1 nM	CCN(C[C@@H](O)C(F)(F)F)C(=O)Nc1cc(Oc2ccc(F)cc2F)ccn1 [Compound E159]
100 nM	CC(C)C(=O)Nc1ccc(-c2cc(F)cc(C#N)c2)cn1 [Compound E174]
347 nM	CCN(C[C@@H](O)C(F)(F)F)C(=O)Nc1cnc(Oc2ccc(C#N)cc2F)cn1 [Compound E256]
240 nM	NS(=O)(=O)N1CCC[C@@H]1C(=O)Nc1ccc(Oc2cc(F)cc(F)c2)cn1 [Compound E279]
2000 nM	CC(C)(C#N)C(=O)Nc1ccc(Oc2ccc(F)c(F)c2)cn1 [Compound E026]
3.63 nM	CCN(C[C@@H](O)C(F)(F)F)C(=O)Nc1cc(Oc2ccccc2F)ccn1 [Compound E151]
5130 nM	CCN(C[C@@H](O)C(F)(F)F)C(=O)Nc1ccc(Oc2cncc(F)c2)cn1 [Compound E110]
1260 nM	CC(C)(C#N)C(=O)Nc1ccc(-c2cc(F)cc(F)c2)cn1 [Compound E178, 2-cyano-N-[5-(3,5-difluorophenyl)-2-pyridyl]-2-methyl-propanamide]
8710 nM	CCN(C[C@@H](O)C(F)(F)F)C(=O)Nc1ccc(-n2cccn2)cn1 [Compound E142, 1-ethyl-3-(5-pyrazol-1-yl-2-pyridyl)-1-[(2R)-3,3,3-trifluoro-2-hydroxy-propyl]urea]
363 nM	CCN(C[C@H](C)O)C(=O)Nc1ccc(Oc2ccc(F)c(F)c2)cn1 [Compound E109]
4.07 nM	CCN(C[C@@H](O)C(F)(F)F)C(=O)Nc1cnc(Oc2ccc(F)cc2Cl)cn1 [Compound E260]
3.47 nM	CCN(C[C@@H](O)C(F)(F)F)C(=O)Nc1cc(Oc2ccc(F)c(F)c2)ccn1 [Compound E150, 3-[4-(3,4-difluorophenoxy)-2-pyridyl]-1-ethyl-1-[(2R)-3,3,3-trifluoro-2-hydroxy-propyl]urea]
14.8 nM	CCN(C[C@@H](O)C(F)(F)F)C(=O)Nc1cnc(Oc2ccc(Cl)cc2F)cn1 [Compound E257]

From US20230027929A1, “MrgprX2 Antagonists and Uses Thereof” (Dermira, Inc., priority 2019, published 2023)
